# Experimental data as given in PMC8886574, “Synthesis, physicochemical characterization and neuroprotective evaluation of novel 1-hydroxypyrazin-2(1H)-one iron chelators in an in vitro cell model of Parkinson's disease” (Dalton Transactions (Cambridge, England : 2003), 2022).
# Where two headings read alike, the source gives them in different places.
# Experiments:
# [1] = DPPH radical scavenging assay; type: biochemical
# [2] = Trolox equivalent antioxidant capacity (TEAC) assay, ABTS radical cation decolorization; type: biochemical; settings: for time to complete reaction with ABTS radical cation: TEAC assay
# Description: 2,2′-Azinobis-(3-ethylbenzothiazoline)-6-sulfonic acid radical cation (ABTS˙^+) is a blue/green chromophore that absorbs at 745 nm and was produced through the reaction between ABTS and potassium persulfate. Addition of antioxidants to the radical cation reduces it to the non-absorbing ABTS to an extent and on a time-scale depending on its antioxidant activity, the concentration of the antioxidant and the duration of the reaction. […] The TEAC value for a given ligand at a given time point was obtained by dividing the corresponding slope of the ligand by the slope of Trolox (Table 3 and Fig. S21 ^†).
# TEAC values were calculated according to an ABTS radical cation decolorization assay. 2,2′-Azinobis-(3-ethylbenzothiazoline-6-sulphonic acid diammonium salt (ABTS, 7 mM) was dissolved in water (10 mL) and exposed to potassium persulphate (2.45 mM). After a 16-hour incubation period (dark, room temperature), the resulting solution was diluted with HPLC-grade methanol such that the absorbance of the solution at 745 nm was around 0.7. ABTS˙^+ solution (2 mL) was loaded into a cuvette and the absorbance was recorded at 745 nm. 50 μL of various concentrations of the given ligand solution were then added, the cuvette was vigorously shaken and the absorbance was measured after 1, 3 and 6 minutes. Data were plotted such that for each time point a linear system of percentage of inhibition of ABTS˙^+versus concentration of ligand was obtained. The slope of each plot was normalised with respect to that of Trolox to give the Trolox equivalence value for each time point.
# [3] = test system: SH-SY5Y neuroblastoma cells; set-up: method as in earlier work; settings: studied previously ref 27; cited from earlier work
# [4] = cited from earlier work
# [5] = Protonation constants (log K) of ligands by UV-visible spectrophotometric titration vs. pH; type: physicochemical; settings: for pKa: value used as input for BBB score (Tables S1–S6); for log K LH2 / log K LH: Solvent H2O; for log K LH: I = 0.1 M (NaClO4), T = 25.0 °C
# Experimental: For ligand 10a, protonation constants of the ligand were studied in both media while complexation studies were carried out only in the mixed solvent for solubility reasons.
# [6] = test system: SH-SY5Y neuroblastoma cells; experiment: Neuroprotection against 6-OHDA insult, MTT cell viability assay; type: cell-based, Human; settings: for % 6-OHDA Rescue (at 100 µM): 100 µM dose of the compound; for neuroprotection against 6-OHDA (in words): 0–300 μM, pre-incubation 1 hour, 6-OHDA 24 hours; for cell viability restored: human, 24 h
# Experimental: We next evaluated the neuroprotective ability of these compounds when cells are exposed to 6-hydroxydopamine (6-OHDA), a neurotoxin that emulates various pathological aspects of PD in dopaminergic neurons, in both in vitro and in vivo disease models, including mitochondrial impairment and cell death.[26c,28,46] […] Cells were pre-treated with the compound of interest at different concentrations for 1 hour prior to treatment with 6-OHDA ([…]) for a further 24 hours.
# Human SH-SY5Y neuroblastoma cells (ATCC® CRL-2266™) were plated at 20 000 cells per well in 96-well microplates, and left to adhere overnight to the well surface, in cell culture media composed of 50% advanced minimum essential medium (MEM), 50% Ham's F12 medium, 1% L-glutamine, that was supplemented with 2% fetal bovine serum (FBS). All media components were obtained from Thermo Fisher Scientific (Gibco™).
# Each well's media was then replaced with 100 μL per well of serum free media, containing ascending concentrations of the novel compounds that ranged from 0–300 μM. Cells were pre-incubated with the compounds for 1 hour at 37 °C, 5% CO2, before exposure to 50 μM 6-OHDA (apart from the wells containing non-toxin treated control cells) for a further 24 hours. Just before application to cells, a 10 mM 6-OHDA hydrochloride (Sigma-Aldrich) stock concentration was prepared, by dissolving the powder in 1 mL distilled water containing 0.1% ascorbic acid (Sigma-Aldrich); the solution was protected against light and kept on ice until use.
# After a further 24 hours incubation period at 37 °C in a 5% CO2 environment, cell viability was measured using the tetrazolium dye, 3-(4,5-dimethylthiazol-2-yl)-2,5-diphenyltetrazolium bromide (MTT). For this colorimetric assay, 11 μL of MTT (5 mg mL^−1) was added to the 100 μL media per well, and then incubated for 3 hours at 37 °C, 5%, CO2. For lysing the cells, an equal volume of solubilizing solution (dimethyl sulfoxide (DMSO)) was added to each well and mixed thoroughly. Absorption was measured at a wavelength of 570 nm by using a scanning multiwell spectrophotometer (Sunrise Tecan, Durham, NC, USA). Cell viability was calculated as a percentage compared to the untreated (not receiving toxin or drug compound) control wells. Data is expressed as the means ± the SEM of three independent experiments. Statistical analyses of the MTT-derived cell viability data were performed using Prism software (v3, GraphPad, San Diego, CA, USA) and using a one-way ANOVA, followed by a Dunnett's post-hoc test for multiple comparisons. Results were considered significant at P < 0.05.
# [7] = Solubility as observed during the studies (in words); type: physicochemical; settings: for solubility in the aqueous phase (in words): HEPES-buffered aqueous phase pH 7.4 of log D7.4 determination, ligands and their Fe^3+ complexes
# [8] = Distribution coefficients (log D7.4), Shake Flask method, n-octanol / HEPES buffer pH 7.4; type: physicochemical; settings: free ligand, n-octanol / HEPES buffered aqueous phase pH 7.4
# Experimental: The method is based on the principle that the solute's distribution is determined as a ratio of concentrations of the test compound in a solution mixture, consisting of two immiscible phases, namely n-octanol and an aqueous buffer (HEPES buffer, pH 7.4).
# [9] = cited from earlier work; remark: listed apart in the source
# [10] = Fe^3+ complexation: stability constants (log β) and sequestering ability (pL0.5) by spectrophotometric titration; settings: solvent H2O; for log β FeL / log β FeL2 / log β FeL3: Fe^3+ complex; for pL0.5: towards Fe^3+ at pH 7.4, [Fe^3+] = 10^−9 M
# [11] = set-up: method as in PMID 32078022; settings: cited from earlier work
# [12] = value used as input for BBB score (Tables S7–S9), previously studied ligands ref 28
smiles,measurement,setting,value
"Cc1c(O)c(=O)ccn1C [DFP 1, deferiprone, reference compound]",EC50,"[1]; methanol, steady-state",8 µg/mL
same,EC50,[1]; read-out: EC50,58 µM
same,time to complete reaction with ABTS radical cation,[2],≤ 1 min
same,Antioxidant activity as TEAC,[2]; t = 1 min,∼0.7 mM
same,Antioxidant activity as TEAC,[2]; t = 3 min,∼0.7 mM
same,Antioxidant activity as TEAC,[2]; t = 6 min,∼0.7 mM
same,% 6-OHDA Rescue (at 100 µM),[3],117%
"O=c1cnccn1O [unsubstituted 1-hydroxypyrazin-2(1H)-one, 1-hydroxypyrazin-2(1H)-one]",pKa,[4]; published previously ref 35,4.4
"Cc1nc(Cc2ccc(O)cc2)c(=O)n(O)c1C [Ligand 6d, 1-Hydroxy-3-(4-hydroxybenzyl)-5,6-dimethylpyrazin-2(1H)-one]",pKa,[5],5.96
same,Antioxidant activity as TEAC,[2]; t = 1 min,0.41 mM
same,Antioxidant activity as TEAC,[2]; t = 3 min,0.55 mM
same,Antioxidant activity as TEAC,[2]; t = 6 min,0.64 mM
same,% 6-OHDA Rescue (at 100 µM),[6],64%
same,solubility in the aqueous phase (in words),[7],low solubilities
same,solubility in water (in words),[7],very low solubility in water
"COc1ccc(-c2cncc(=O)n2O)cc1 [Ligand 10b, 1-Hydroxy-6-(4-methoxyphenyl)-pyrazin-2(1H)-one]",solubility in water (in words),[7],low water solubilities
same,melting point,,176.8 to 179 °C
"Cc1ncc(=O)n(O)c1C [Ligand 6a, 1-Hydroxy-5,6-dimethylpyrazin-2(1H)-one]",log K LH2,[5],0.04(2)
same,log K LH,[5],4.58(4)
same,pKa,[5],4.58
same,logD,[8],-1.73
same,Antioxidant activity as TEAC,[2]; t = 1 min,0.08 mM
same,Antioxidant activity as TEAC,[2]; t = 3 min,0.16 mM
same,Antioxidant activity as TEAC,[2]; t = 6 min,0.22 mM
same,neuroprotection against 6-OHDA (in words),[6],fully rescued
same,% 6-OHDA Rescue (at 100 µM),[6],100%
same,cell viability restored,[6],≥ 89%
same,pKa,[4]; published previously ref 35,4.7
same,log β3,"[9]; 1 : 3 Fe^3+ complex, different experimental conditions ref 35",20.2
same,log β FeL,[10],10.38(6)
same,log β FeL2,[10],18.1(4)
same,log β FeL3,[10],23.85(1)
same,pL0.5,[10],4.36
"O=c1cncc(-c2ccc(F)cc2)n1O [Ligand 10c, 1-Hydroxy-6-(4-fluorophenyl)-pyrazin-2(1H)-one]",solubility in water (in words),[7],low water solubilities
same,melting point,,210.6 to 212.5 °C
"Cc1cncc(=O)n1O [Ligand 11a, 1-Hydroxy-6-methylpyrazin-2(1H)-one]",log K LH2,[5],0.2(2)
same,log K LH,[5],3.98(5)
same,pKa,[5],3.98
same,logD,[8],-0.4
same,Antioxidant activity as TEAC,[2]; t = 1 min,0.02 mM
same,Antioxidant activity as TEAC,[2]; t = 3 min,0.03 mM
same,Antioxidant activity as TEAC,[2]; t = 6 min,0.05 mM
same,% 6-OHDA Rescue (at 100 µM),[6],60%
same,log β FeL,[10],7.83(1)
same,log β FeL2,[10],14.28(2)
same,log β FeL3,[10],20.19(4)
same,pL0.5,[10],3.13
O=C(O)c1cccn(O)c1=O [Ligand 3],pKa,[4]; [12],3.7
same,% 6-OHDA Rescue (at 100 µM),[3],84%
"O=c1cncc(-c2ccc(O)cc2)n1O [Ligand 10d, 1-Hydroxy-6-(4-hydroxyphenyl)-pyrazin-2(1H)-one]",pKa,[5],4
same,neuroprotection against 6-OHDA (in words),[6],partially prevented
same,% 6-OHDA Rescue (at 100 µM),[6],76%
"O=c1cncc(-c2ccccc2)n1O [Ligand 10a, 1-Hydroxy-6-phenylpyrazin-2(1H)-one]",log K LH2,[5],∼−0.6
same,log K LH,[5],3.18(1)
same,pKa,[5],3.18
same,logD,[8],-1.2
same,time to complete reaction with ABTS radical cation,[2],~3 min
same,Antioxidant activity as TEAC,[2]; t = 1 min,0.66 mM
same,Antioxidant activity as TEAC,[2]; t = 3 min,0.69 mM
same,Antioxidant activity as TEAC,[2]; t = 6 min,0.70 mM
same,neuroprotection against 6-OHDA (in words),[6],only marginal protection
same,% 6-OHDA Rescue (at 100 µM),[6],63%
same,solubility in water (in words),[7],very low solubility in water
"Cc1nc(Cc2ccccc2)c(=O)n(O)c1C [Ligand 6c, 1-Hydroxy-3-benzyl-5,6-dimethylpyrazin-2(1H)-one]",pKa,[5],5.53
same,Antioxidant activity as TEAC,[2]; t = 1 min,0.21 mM
same,Antioxidant activity as TEAC,[2]; t = 3 min,0.31 mM
same,Antioxidant activity as TEAC,[2]; t = 6 min,0.40 mM
same,neuroprotection against 6-OHDA (in words),[6],partially prevented
same,% 6-OHDA Rescue (at 100 µM),[6],89%
same,cell viability restored,[6],≥ 89%
same,solubility in the aqueous phase (in words),[7],low solubilities
same,solubility in water (in words),[7],very low solubility in water
"NCCc1cc(O)c(O)cc1O [Ligand 6-OHDA, 6-hydroxydopamine, reference compound]",decrease of cell viability,"[6]; toxin only, 24 hours",approximately 50%
O=c1cccc(CO)n1O [Ligand 2],pKa,[4]; [12],6.02
same,log D7.4 of Fe^3+ complex,[11]; Fe^3+ complex of the ligand ref 28,−0.18
same,log D7.4,[11]; free ligand ref 28,−1.71
same,% 6-OHDA Rescue (at 100 µM),[3],93%
"CC(=O)N(O)CCCCCNC(=O)CCC(=O)N(O)CCCCCNC(=O)CCC(=O)N(O)CCCCCN [DFO, desferrioxamine, reference compound]",log β,"[9]; iron affinity ref 57a,b",30.5
